How the values were obtained:
[1] = system: porcine ex-vivo skin punches; assay: Ex-vivo porcine wound healing model (skin punches, wound healing score); design: species or system pig; conditions: for Wound healing potential: porcine ex-vivo skin punches; for Wound healing progress based on the PBS control (MW) / Absolute wound healing progress (wound healing score, MW): 5 μl into the wound, after 48 h; for Wound healing progress based on the PBS control (MW): PBS isotonic = 1.00; for Absolute wound healing progress (wound healing score, MW): score 0-4
Procedure: An ex-vivo porcine wound healing model was used as it has been described in patent publication DE 103 17 400 B4.
From the plicae of washed and sterilized pig ears sample punches 6 mm in diameter were taken. From the center of the punches the epidermis and the upper dermis were removed in an area of 3 mm. Immediately after the models had been generated 5 μl of the test substances were introduced into the wounds, while 5 μl of PBS were applied into the control models. After 48 h (t48 h) the models were flash-frozen and stored at −80° C.
14 test series each were carried out so that 8 to 11 evaluable models were available for each sample.
The models were completely embedded in tissue freezing medium (company of Leica, Nussloch), and 6 μm thin sections were prepared using a cryostat. Care had been taken that the focus was always in the center of the respective model.
The sections were placed on SuperFrost object slides, air dried, fixed for 10 min. in −20° C. cold acetone, and stored at −80° C.
All models were stained with hematoxylin/eosin (2 sections each). The sequence of the staining process was as follows:
The staining was evaluated by means of a Leica light microscope DM LS and an Olympus Camedia digital camera.
0: No wound healing progress 1: Small wound tongue 2: Large wound tongue 3: Closed sheet 4: Multi-layered closed sheet.
In the event that both wound margins could be assessed the average between the left and the right wound margin was determined. The statistical evaluations were made using Student's paired T-test.

[2] = system: HaCaT cells (human skin cells); assay: Wound closure in vitro: circular injury in a HaCaT monolayer; format: cell-based; conditions: for Area of Injury (MW): 0.5% FCS, n=4
Procedure: Plating of HaCaT cells (human skin cells) took place on collagen-I coated 24-well plates. With a complete medium (10% FCS=fetal calf serum) the cells grew together as monolayer within a period of 24 h.
After this cell layer had closed a circular injury was applied in the center using a sterile tip of a defined diameter that averaged 0.68 mm (0.363 mm^2).
When the injury had been applied the complete medium was changed to a starvation medium containing only 0.5 w/w of FCS (fetal calf serum) instead of 10% w/w FCS. The following test solutions were then pipetted on the cells (per solution: n=4):
0.5% FCS+PBS (phosphate buffered saline), control solution 0.5 FCS+1 mM ectoine 0.5 FCS+10 mM ectoine 0.5% FCS+100 mM ectoine.
Over a time span of 48 h the cells were incubated with the test solutions during which wound closure was documented with the aid of a digital camera. In each case photos were taken at the beginning and then at 24-h intervals. The area still found to be free in each case was measured or calculated and expressed in mm^2. The results can be seen from the following tables (SD: Standard deviation, MW: Mean value): […]

[3] = system: ARPE-19 cells (adherent retinal pigment epithelial cells); assay: Re-epithelialization scratch assay; format: cell-based; conditions: for Gap width in %: after 24 h, untreated sample = 100%; for Gap width in treated cell cultures (re-epithelialization): first two days, especially in serum-free cultures
Procedure: After 24 hours of incubation using 0, 0.1, 0.5, 1, 2.5 and 5 mM of ectoine/hydroxyectoine in serum-free and serum-containing media defined cell areas were removed (scratch assay) from a confluent cell layer of ARPE-19 cells (adherent retinal pigment epithelial cells). The width of the applied gap was determined via microscope at previously marked places. 24 and 48 hours later in each case a photo documentation was prepared with the gap width being again determined at the respective places. 6 tests were performed for each concentration.
The mean value of the gap widths after 24 h of the sample not treated with ectoine was determined to be 100%. The following gap width percentages could be detected: […]

OCC(CO)OC1OC(CO)[C@@H](O)C(O)C1O (stereo in doubt) [glucosylglycerol, 2-O-α-D-glucosylglycerol]
Wound healing potential [1]: improved wound healing potential

OCC(CO)O[C@H]1O[C@H](CO)[C@@H](O)[C@H](O)[C@H]1O [GG I, Glucosylglycerol]
Wound healing progress based on the PBS control (MW) [1]: 1.42 | Absolute wound healing progress (wound healing score, MW) [1]: 2.12

OCC(CO)O[C@H]1O[C@H](CO)[C@@H](O)[C@H](O)[C@H]1O [GG hypertonic, Glucosylglycerol]
Wound healing progress based on the PBS control (MW) [1]: 1.17 | Absolute wound healing progress (wound healing score, MW) [1]: 1.66

CC1=NC[C@H](O)[C@@H](C(=O)O)N1 [HE I, Hydroxyectoine]
Wound healing progress based on the PBS control (MW) [1]: 1.05 | Absolute wound healing progress (wound healing score, MW) [1]: 1.92

CC1=NC[C@H](O)[C@@H](C(=O)O)N1 [HE hypertonic, Hydroxyectoine]
Wound healing progress based on the PBS control (MW) [1]: 1.21 | Absolute wound healing progress (wound healing score, MW) [1]: 2.08

CC1=NCC[C@@H](C(=O)O)N1 [ectoine, (S)-2-methyl-1,4,5,6-tetrahydropyrimidine-4-carboxylic acid]
Closure of the circular injury in comparison with the control solution ([2]; 1 mM ectoine): marked tendency towards faster closure | Area of Injury (MW) ([2]; 1 mM ectoine, after 0 hours): 0.354 mm^2 | Area of Injury (MW) ([2]; 1 mM ectoine, after 24 hours): 0.157 mm^2 | Area of Injury (MW) ([2]; 1 mM ectoine, after 48 hours): 0.042 mm^2 | Closure of the circular injury in comparison with the control solution ([2]; 10 mM ectoine): marked tendency towards faster closure | Area of Injury (MW) ([2]; 10 mM ectoine, after 0 hours): 0.351 mm^2 | Area of Injury (MW) ([2]; 10 mM ectoine, after 24 hours): 0.182 mm^2 | Area of Injury (MW) ([2]; 10 mM ectoine, after 48 hours): 0.023 mm^2 | Closure of the circular injury in comparison with the control solution ([2]; 100 mM ectoine): delayed healing | Area of Injury (MW) ([2]; 100 mM ectoine, after 0 hours): 0.325 mm^2 | Area of Injury (MW) ([2]; 100 mM ectoine, after 24 hours): 0.244 mm^2 | Area of Injury (MW) ([2]; 100 mM ectoine, after 48 hours): 0.171 mm^2 | Gap width in % ([3]; 0.1 mM ectoine): 100.687% | Gap width in % ([3]; 0.5 mM ectoine): 96.434% | Gap width in % ([3]; 1 mM ectoine): 91.632% | Gap width in % ([3]; 2.5 mM ectoine): 93.012% | Gap width in % ([3]; 5 mM ectoine): 88.418% | Gap width in treated cell cultures (re-epithelialization) [3]: diminished faster

CC1=NC[C@H](O)[C@@H](C(=O)O)N1 [hydroxyectoine, (4S,5S)-5-hydroxy-2-methyl-1,4,5,6-tetrahydropyrimidine-4-carboxylic acid]
Re-epithelialization, hydroxyectoine compared with ectoine [3]: slightly more effective with hydroxyectoine than with ectoine | Gap width in treated cell cultures (re-epithelialization) [3]: diminished faster | Wound healing potential [1]: improved wound healing potential
